This is an account of results in US20250032385A1, “FUNCTIONAL COMPOSITION FOR ALOPECIA COMPRISING CENTIPEDA MINIMA-DERIVED EXTRACT” (priority 2021, published 2025).

Data set [1] relates to mouse macrophage RAW 264.7 cells. The following applies: 24 hours; for Cell viability compared with positive control group (CTL): 10 μg/mL; for Cell viability as the concentration increased (cytotoxicity): 1.25, 2.5, 5 and 10 μg/ml; for Concentration at which the cell viability was the highest: tested 1.25-10 μg/ml. How it is done: In addition, for comparison, an NO production inhibition measurement experiment and a cell viability measurement experiment were also conducted on the synthetic anti-inflammatory agent dexamethasone.
The experiments were conducted using mouse macrophage RAW 264.7 cells as an inflammatory model. RAW 264.7 cells were cultured in a 100 mm cell culture dish with DMEM containing 10% fetal bovine serum and 1% penicillin in a 5% CO2 incubator. Cells that reached confluence were detached using a scraper and subcultured.
Specifically, for the experiment on cell viability, RAW 264.7 cells were dispensed on a 60-mm plate at a density of 2×10^6 cells/dish, and attached to the plate for 24 hours. Then, the cells were treated with fresh media containing each component at concentrations of 1.25, 2.5, 5 and 10 μg/ml and cultured for 24 hours. The number of viable cells was counted by measuring the dehydrogenase present in the mitochondria within the cultured cells. EZ-CYTOX reagent (EZ-1000, Daeilab) was used, and based on the absorbance measured at 450 nm, the cell viability for each concentration was calculated according to the following equation: Cell viability=(absorbance of CMX-treated group/absorbance of untreated group)×100.

For data set [2] the test system is unchanged. The data set is classed as cell-based. The following applies: for NO production as the concentration increased: 100 ng/ml LPS, 1.25, 2.5, 5 and 10 μg/ml; for NO production as the concentration increased / Concentration at which the production of NO was the lowest: 24 hours; for Concentration at which the production of NO was the lowest: tested 1.25-10 μg/ml; for Effect relative to the same amount Brevilin-A (potency value of inflammation inhibition rate): from NO production potency formulas, FIG. 12. Here is the method: The amount of NO produced by the cultured RAW 264.7 cells and present in the culture medium was measured using a NO detection kit (cat. No. 21021, Intron) based on the Griess reaction. 100 μl of the culture medium estimated to contain NO was dispensed into 96-well plates, and then 50 μl of N1 buffer (sulfanilamide) was added thereto and reacted at room temperature for 10 minutes. Next, 50 μl of N2 buffer (naphthylethylenediamine) was added thereto and reacted at room temperature for 10 minutes, and then the absorbance was measured at 540 nm. The amount of NO produced was determined using a standard calibration curve obtained using a nitrite standard. In addition, a positive control group (CTL) was treated with only LPS and fresh medium not containing any of the components, and a negative control group was treated with only 100 ng/ml LPS. The measurement results are presented as the average value of three repeated experiments.

With `CC(C)C(=O)O[C@H]1[C@@H]2[C@H](C)C(=O)O[C@@H]2C[C@@H](C)[C@@H]2C=CC(=O)[C@]21C` [Arnicolide C], in data set [1], the “Cell viability compared with positive control group (CTL)” value is recorded as “difference in cell viability from the positive control group (CTL) was significantly small” and the “Cell viability as the concentration increased (cytotoxicity)” value is reported as “no significant change”. Also, in data set [2], the “NO production as the concentration increased” value is on record as “decreased” and the “Effect relative to the same amount Brevilin-A (potency value of inflammation inhibition rate)” value is listed as 0.7. Moreover, in data set [2] (100 ng/ml LPS), the “Concentration at which the production of NO was the lowest” value (“Concentration … of NO was the lowest” for short) amounted to 10 µg/mL.

`C=C(C)C(=O)O[C@H]1[C@@H]2[C@H](C)C(=O)O[C@@H]2C[C@@H](C)[C@@H]2C=CC(=O)[C@]21C` [Arnicolide D]: in data set [1], the “Cell viability as the concentration increased (cytotoxicity)” value is listed as “no significant change” and the “Concentration at which the cell viability was the highest” value came out at 5000 ng/mL. For the same molecule, in data set [2], the “NO production as the concentration increased” value is given as “decreased” and the “Effect relative to the same amount Brevilin-A (potency value of inflammation inhibition rate)” value was found to be 1.5. Also, in data set [2] (5 μg/mL, 100 ng/ml LPS), the “NO production compared with positive control group (CTL)” value is recorded as “lower than that in the positive control group (CTL)”.

In the case of `C/C=C(/C)C(=O)O[C@H]1[C@@H]2[C@H](C)C(=O)O[C@@H]2C[C@@H](C)[C@@H]2C=CC(=O)[C@]21C` [Brevilin A], in data set [1], the “Cell viability as the concentration increased (cytotoxicity)” value is reported as “no significant change” and the “Concentration at which the cell viability was the highest” value was 5000 ng/mL. Besides, in data set [2], the “NO production as the concentration increased” value is given as “decreased” and the “Effect relative to the same amount Brevilin-A (potency value of inflammation inhibition rate)” value was determined as 1.0. Besides, in data set [2] (100 ng/ml LPS), the “Concentration … of NO was the lowest” value came out at 5 µg/mL.

`C/C=C(\C)C(=O)O[C@H]1[C@@H]2[C@H](C)C(=O)O[C@@H]2C[C@@H](C)[C@@H]2C=CC(=O)[C@]21C` [Microhelenin C]: in data set [1], the “Cell viability compared with positive control group (CTL)” value is reported as “somewhat higher than that in the positive control group (CTL)” and the “Cell viability as the concentration increased (cytotoxicity)” value was “no significant change”. Moreover, in data set [2], the “NO production as the concentration increased” value is recorded as “decreased” and the “Effect relative to the same amount Brevilin-A (potency value of inflammation inhibition rate)” value was determined as 0.8. For the same molecule, the “Concentration … of NO was the lowest” value in data set [2] (100 ng/ml LPS) stood at 10 µg/mL.
